Tests used:
water solubility = type: physicochemical; conditions: for solubility: water; for solubility (in words): in water
Source text: The configuration of the α-amino acid moiety may be arbitrary. The type of amino acid residue influences to a degree the solubility of the compound of the invention in water. For example, […]

[1] = viscosity of aqueous preparations (Table 1); type: physicochemical
Source text: The derivatives of compounds (I) of the invention which show a good solubility in water generally show viscosity values which, as can be expected, are dependent from the number and position of the hydroxy groups, as well as from the configuration of the amino acid residue. Representative compounds of the invention are shown in the Table 1, with their viscosity values.
Viscosity data in dependency from the type of amino acid and
the concentration of the preparation.

[2] = heat stability of a 67,9% aq. solution at different temperatures and times (Table 2); type: physicochemical
Source text: Behaviour of a 67,9% aq. solution of (II) at different temperatures

[3] = LD50 in mouse, i.v. (Table 3); type: in vivo; conditions: in vivo, iv, 14 days after application, solution with 300 mg J/ml
Description: (§1) LD50 in mouse, i.v. (14 days after application) of solution
(§2) with a content of 300 mg J/ml.

mouse = assay: LD50 in mouse, i.v. (Table 3); type: in vivo
Description: as §1, §2

## CC(=O)Nc1c(I)c(NC(C)=O)c(I)c(C(=O)N[C@@H](C)C(=O)N(C)C[C@H](O)[C@@H](O)[C@H](O)[C@H](O)CO)c1I [III, N,N-[(3,5-diacetamido-2,4,6-triiodobenzoyl)-L-alanine]-N-methyl glucamide]
Water solubility; soluble
  solubility: ≤ 500 mg/mL

## CC(=O)Nc1c(I)c(NC(C)=O)c(I)c(C(=O)N[C@@H](CO)C(=O)N(C)C[C@H](O)[C@@H](O)[C@H](O)[C@H](O)CO)c1I [VIII, N,N-[(3,5-diacetamido-2,4,6-triiodobenzoyl)-L-serine]-N-methyl glucamide]
Water solubility; soluble
  solubility: ≤ 500 mg/mL
[1]; 20° C., 100 mg J/ml
  Viscosity: 2.13 cP
[1]; 20° C., 150 mg J/ml
  Viscosity: 3.11 cP
[1]; 20° C., 200 mg J/ml
  Viscosity: 5.15 cP
[1]; 20° C., 250 mg J/ml
  Viscosity: 9.43 cP
[1]; 20° C., 300 mg J/ml
  Viscosity: 20.05 cP
[1]; 37° C., 100 mg J/ml
  Viscosity: 1.84 cP
[1]; 37° C., 150 mg J/ml
  Viscosity: 1.95 cP
[1]; 37° C., 200 mg J/ml
  Viscosity: 3.04 cP
[1]; 37° C., 250 mg J/ml
  Viscosity: 5.16 cP
[1]; 37° C., 300 mg J/ml
  Viscosity: 9.71 cP

## CC(=O)Nc1c(I)c(NC(C)=O)c(I)c(C(=O)N(C)CC(=O)N(C)C[C@H](O)[C@@H](O)[C@H](O)[C@H](O)CO)c1I [II, N,N-[(3,5-diacetamido-2,4,6-triiodobenzoyl)-sarcosine]-N-methyl glucamide]
Water solubility
  solubility (in words): superior in respect to solubility
Water solubility; very soluble
  solubility: > 1000 mg/mL
[1]; 20° C., 100 mg J/ml
  Viscosity: 2.16 cP
[1]; 20° C., 150 mg J/ml
  Viscosity: 3.50 cP
[1]; 20° C., 200 mg J/ml
  Viscosity: 5.74 cP
[1]; 20° C., 250 mg J/ml
  Viscosity: 10.84 cP
[1]; 20° C., 300 mg J/ml
  Viscosity: 18.88 cP
[1]; 37° C., 100 mg J/ml
  Viscosity: 1.48 cP
[1]; 37° C., 150 mg J/ml
  Viscosity: 2.22 cP
[1]; 37° C., 200 mg J/ml
  Viscosity: 3.32 cP
[1]; 37° C., 250 mg J/ml
  Viscosity: 6.20 cP
[1]; 37° C., 300 mg J/ml
  Viscosity: 9.22 cP
[2]; 30 min, 110 °C.
  Color: colorless
  Iodide: 2.63 mg J/100 ml
  pH: 7.85
[2]; 30 min, 120 °C.
  Color: colorless
  Iodide: 3.73 mg J/100 ml
  pH: 7.80
[2]; 60 min, 110 °C.
  Color: colorless
  Iodide: 3.72 mg J/100 ml
  pH: 7.75
[2]; base solution
  Color: colorless
  Iodide: 1.78 mg J/100 ml
  pH: 7.85
[3]
  LD50 at 336 h: 36000 mg/kg
mouse; in vivo
  toxicity (in words): low toxicity

## CC(=O)Nc1c(I)c(NC(C)=O)c(I)c(C(=O)O)c1I [sodium-meglumine-diatrizoate, reference compound]
[3]
  LD50 at 336 h: 12000 to 14000 mg/kg

## CC(=O)Nc1c(I)c(NC(C)=O)c(I)c(C(=O)NCCCC(=O)N(C)C[C@H](O)[C@@H](O)[C@H](O)[C@H](O)CO)c1I [V, N,N-[(3,5-diacetamido-2,4,6-triiodobenzoyl)-γ-aminobutyric acid]-N-methyl glucamide]
Water solubility; moderately soluble
  solubility: ≤ 200 mg/mL

## CC(=O)Nc1c(I)c(NC(C)=O)c(I)c(C(=O)NCCC(=O)N(C)C[C@H](O)[C@@H](O)[C@H](O)[C@H](O)CO)c1I [IV, N,N-[(3,5-diacetamido-2,4,6-triiodobenzoyl)-β-alanine]-N-methyl glucamide]
Water solubility; moderately soluble
  solubility: ≤ 200 mg/mL

## CC(=O)Nc1c(I)c(NC(C)=O)c(I)c(C(=O)N[C@@H](CCC(=O)N(C)C[C@H](O)[C@@H](O)[C@H](O)[C@H](O)CO)C(=O)N(C)C[C@H](O)[C@@H](O)[C@H](O)[C@H](O)CO)c1I [XI, N,N-[(3,5-diacetamido-2,4,6-triiodobenzoyl)-L-glutamic acid]-bis-N-methyl glucamide]
Water solubility
  solubility (in words): superior in respect to solubility
Water solubility; moderately soluble
  solubility: ≤ 200 mg/mL
Water solubility; very soluble
  solubility: > 1000 mg/mL

## CC(=O)Nc1c(I)c(NC(C)=O)c(I)c(C(=O)NCCCC[C@H](NC(=O)C(C)O)C(=O)N(C)C[C@H](O)[C@@H](O)[C@H](O)[C@H](O)CO)c1I (stereo partly drawn) [XII, N,N-[α-lactyl-ε-(3,5-diacetamido-2,4,6-triiodobenzoyl)-L-lysine]-N-methyl glucamide]
Water solubility; moderately soluble
  solubility: ≤ 200 mg/mL

## CC(=O)Nc1c(I)c(NC(C)=O)c(I)c(C(=O)NC(CC(=O)N(C)C[C@H](O)[C@@H](O)[C@H](O)[C@H](O)CO)C(=O)N(C)C[C@H](O)[C@@H](O)[C@H](O)[C@H](O)CO)c1I (mixture of isomers) [X, N,N-[(3,5-diacetamido-2,4,6-triiodobenzoyl)-DL-aspartic acid]-bis-N-methyl glucamide]
Water solubility
  solubility (in words): superior in respect to solubility
Water solubility; very soluble
  solubility: > 1000 mg/mL
[1]; 20° C., 200 mg J/ml
  Viscosity: 10.65 cP
[1]; 20° C., 250 mg J/ml
  Viscosity: 25.38 cP
[1]; 37° C., 200 mg J/ml
  Viscosity: 5.84 cP
[1]; 37° C., 250 mg J/ml
  Viscosity: 12.23 cP

## CC(=O)Nc1c(I)c(NC(C)=O)c(I)c(C(=O)O)c1I [lysine-diatrizoate, reference compound]
mouse; i.v., 14 days after application, solution with 300 mg J/ml, 20160 min
  LD50: 14000 to 18000 mg/kg

## CC(=O)Nc1c(I)c(NC(C)=O)c(I)c(C(=O)N[C@@H](CC(=O)N(C)C[C@H](O)[C@@H](O)[C@H](O)[C@H](O)CO)C(=O)N(C)C[C@H](O)[C@@H](O)[C@H](O)[C@H](O)CO)c1I [IX, N,N-[(3,5-diacetamido-2,4,6-triiodobenzoyl)-L-aspartic acid]-bis-N-methyl glucamide]
Water solubility
  solubility (in words): superior in respect to solubility
Water solubility; very soluble
  solubility: > 1000 mg/mL
[1]; 20° C., 100 mg J/ml
  Viscosity: 2.90 cP
[1]; 20° C., 150 mg J/ml
  Viscosity: 5.15 cP
[1]; 20° C., 200 mg J/ml
  Viscosity: 11.14 cP
[1]; 20° C., 250 mg J/ml
  Viscosity: 33.58 cP
[1]; 20° C., 300 mg J/ml
  Viscosity: 88.85 cP
[1]; 37° C., 100 mg J/ml
  Viscosity: 1.84 cP
[1]; 37° C., 150 mg J/ml
  Viscosity: 3.04 cP
[1]; 37° C., 200 mg J/ml
  Viscosity: 6.06 cP
[1]; 37° C., 250 mg J/ml
  Viscosity: 15.96 cP
[1]; 37° C., 300 mg J/ml
  Viscosity: 35.41 cP

Source: patent US4607123A, “Water soluble 3,5-diacetamido-2,4,6-triiodobenzoic acid derivatives” (Dr. Franz Kohler Chemie GmbH, priority 1984, dated 1986)
